What follows are molecules tested against KRas G12D (Homo sapiens, UniProt P01116, G12D) (assay: KRas G12D Binding Assay (TR-FRET displacement of labeled tracer)). Settings: TR-FRET displacement of Cy5 labelled tracer, biotinylated GDP-loaded KRAS G12D (aa 1:169), 60 minute incubation at 22° C.
Set-up: corresponding to amino acids 1:169, produced at Array BioPharma; biotin (protein is biotinylated)
Procedure: This Example illustrates that exemplary compounds of the present invention bind to KRas G12D and are capable of displacing a labeled tracer ligand occupying the KRas G12D binding site.
The ability of a compound to bind to KRAS G12D was measured using a TR-FRET displacement assay. Biotinylated GDP-loaded recombinant human KRAS G12D (corresponding to amino acids 1:169, produced at Array BioPharma) was incubated with a custom-made Cy5 labelled tracer, europium labelled streptavidin and compound (2% DMSO final) in buffer (50 mM HEPES [pH 7.5], 5 mM MgCl2, 0.005% Tween-20 & 1 mM DTT). After a 60 minute incubation at 22° C., the reaction was measured using a PerkinElmer EnVision multimode plate reader via TR-FRET dual wavelength detection, and the percent of control (POC) calculated using a ratiometric emission factor. […] The POC values were fit to a 4-parameter logistic curve and the IC50 value was determined as the concentration where the curve crosses 50 POC.

Sequence of KRas G12D (P01116 1-169 isoform P01116-2 G12D): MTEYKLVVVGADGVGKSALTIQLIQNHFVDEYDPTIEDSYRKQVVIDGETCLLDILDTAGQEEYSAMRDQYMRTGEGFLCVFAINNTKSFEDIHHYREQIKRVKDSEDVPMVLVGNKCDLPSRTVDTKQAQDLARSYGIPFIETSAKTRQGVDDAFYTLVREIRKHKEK

Structure (SMILES) | IC50 [nM]
CN1CCC[C@H]1COc1nc2c(c(N3C[C@H]4C[C@@H](CCN)[C@@H](C3)N4)n1)CCN(c1cccc3cccc(Cl)c13)C2 [Example 39, 2-((1R,5S,6R)-3-(7-(8-chloronaphthalen-1-yl)-2-(((S)-1-methylpyrrolidin-2-yl)methoxy)-5,6,7,8-tetrahydropyrido[3,4-d]pyrimidin-4-yl)-3,8-diazabicyclo[3.2.1]octan-6-yl)ethan-1-amine] | 2690
c1cc2c(c(N3CCc4c(nc(OCC56CCCN5CCC6)nc4N4C[C@H]5CC[C@@H](C4)N5)C3)c1)C(C1CC1)CC2 (stereo partly drawn) [Example 102, 4-((1R,5S)-3,8-diazabicyclo[3.2.1]octan-3-yl)-7-(3-cyclopropyl-2,3-dihydro-1H-inden-4-yl)-2-((tetrahydro-1H-pyrrolizin-7a(5H)-yl)methoxy)-5,6,7,8-tetrahydropyrido[3,4-d]pyrimidine] | 654
CN1CCC[C@H]1COc1nc2c(c(N3C[C@H]4CC[C@@H](C3)N4)n1)CCN(c1cccc3c(Cl)cccc13)C2 [Example 15, 4-((1R,5S)-3,8-diazabicyclo[3.2.1]octan-3-yl)-7-(5-chloronaphthalen-1-yl)-2-(((S)-1-methylpyrrolidin-2-yl)methoxy)-5,6,7,8-tetrahydropyrido[3,4-d]pyrimidine] | 7900
CN1CCC[C@H]1COc1nc2c(c(N3C[C@H]4CC[C@@H](C3)N4)n1)CCN(c1cccc3c(F)cccc13)C2 [Example 16, 4-((1R,5S)-3,8-diazabicyclo[3.2.1]octan-3-yl)-7-(5-fluoronaphthalen-1-yl)-2-(((S)-1-methylpyrrolidin-2-yl)methoxy)-5,6,7,8-tetrahydropyrido[3,4-d]pyrimidine] | 1760
CNC(=O)OC[C@H]1CCC2(COc3nc4c(c(N5CC6CCC(C5)N6)n3)CCN(c3cccc5cccc(C)c35)C4)CCCN12 (stereo partly drawn) [Example 21, (7a-(((4-((1R,5S)-3,8-diazabicyclo[3.2.1]octan-3-yl)-7-(8-methylnaphthalen-1-yl)-5,6,7,8-tetrahydropyrido[3,4-d]pyrimidin-2-yl)oxy)methyl)hexahydro-1H-pyrrolizin-3-yl)methyl methylcarbamate (trans enantiomers)] | 12.3
COC[C@H]1C[C@@H]2CN(c3nc(OC[C@@H]4CCCN4C)nc4c3CCN(c3cccc5cccc(Cl)c35)C4)C[C@H]1N2 (single isomer, unassigned) [Example 94] | 852
c1cc2c(c(N3CCc4c(nc(OCC56CCCN5CCC6)nc4N4C[C@H]5CC[C@@H](C4)N5)C3)c1)CCC2 [Example 104, 4-((1R,5S)-3,8-diazabicyclo[3.2.1]octan-3-yl)-7-(2,3-dihydro-1H-inden-4-yl)-2-((tetrahydro-1H-pyrrolizin-7a(5H)-yl)methoxy)-5,6,7,8-tetrahydropyrido[3,4-d]pyrimidine] | 756
CN1CCC[C@H]1COc1nc2c(c(N3C[C@H]4CC[C@@H](C3)N4)n1)CCN(c1nc(N)cc3ccccc13)C2 [Example 60, 1-(4-((1R,5S)-3,8-diazabicyclo[3.2.1]octan-3-yl)-2-(((S)-1-methylpyrrolidin-2-yl)methoxy)-5,8-dihydropyrido[3,4-d]pyrimidin-7(6H)-yl)isoquinolin-3-amine] | > 10000
CN1CCC[C@H]1COc1nc2c(c(N3CC4CC(O)(C(F)F)C(C3)N4)n1)CCN(c1cccc3cccc(Cl)c13)C2 (stereo partly drawn) [Example 41, 3-(7-(8-chloronaphthalen-1-yl)-2-(((S)-1-methylpyrrolidin-2-yl)methoxy)-5,6,7,8-tetrahydropyrido[3,4-d]pyrimidin-4-yl)-6-(difluoromethyl)-3,8-diazabicyclo[3.2.1]octan-6-ol] | 3130
CC(C)c1ccccc1N1CCc2c(nc(OCC34CCCN3[C@@H](COC(=O)N(C)C)CC4)nc2N2CC3CCC(C2)N3)C1 (stereo partly drawn) [Example 32, (7a-(((4-((1R,5S)-3,8-diazabicyclo[3.2.1]octan-3-yl)-7-(2-isopropylphenyl)-5,6,7,8-tetrahydropyrido[3,4-d]pyrimidin-2-yl)oxy)methyl)hexahydro-1H-pyrrolizin-3-yl)methyl dimethylcarbamate (trans enantiomers)] | 1170
CN1CCC[C@H]1COc1nc2c(c(N3CC4CCC(CC#N)(C3)N4)n1)CCN(c1cccc3cccc(Cl)c13)C2 (stereo partly drawn) [Example 42, 2-(3-(7-(8-chloronaphthalen-1-yl)-2-(((S)-1-methylpyrrolidin-2-yl)methoxy)-5,6,7,8-tetrahydropyrido[3,4-d]pyrimidin-4-yl)-3,8-diazabicyclo[3.2.1]octan-1-yl)acetonitrile] | 1800
CN1CCC[C@H]1COc1nc2c(c(N3C[C@H]4CC[C@@H](C3)N4)n1)CCN(c1cccc3cc(O)cc(Cl)c13)C2 [Example 113, 5-(4-((1R,5S)-3,8-diazabicyclo[3.2.1]octan-3-yl)-2-(((S)-1-methylpyrrolidin-2-yl)methoxy)-5,6-dihydropyrido[3,4-d]pyrimidin-7(8H)-yl)-4-chloronaphthalen-2-ol] | 807
FC1(F)CCc2c(N3CCc4c(nc(OCC56CCCN5CCC6)nc4N4C[C@H]5CC[C@@H](C4)N5)C3)cccc21 [Example 101, 4-((1R,5S)-3,8-diazabicyclo[3.2.1]octan-3-yl)-7-(1,1-difluoro-2,3-dihydro-1H-inden-4-yl)-2-((tetrahydro-1H-pyrrolizin-7a(5H)-yl)methoxy)-5,6,7,8-tetrahydropyrido[3,4-d]pyrimidine] | 2490
CN1CCC[C@H]1COc1nc2c(c(N3C[C@H]4C[C@@H](C#N)[C@@H](C3)N4)n1)CCN(c1cccc3cccc(Cl)c13)C2 [Example 92, (1R,5S,6R)-3-(7-(8-chloronaphthalen-1-yl)-2-(((S)-1-methylpyrrolidin-2-yl)methoxy)-5,6,7,8-tetrahydropyrido[3,4-d]pyrimidin-4-yl)-3,8-diazabicyclo[3.2.1]octane-6-carbonitrile] | 5490
CCc1cccc2cccc(N3CCc4c(nc(OC[C@@]56CCCN5C[C@H](F)C6)nc4C4CC5CCC(N5)C4O)C3)c12 (stereo in doubt) [Example 123, (1S,3R,5R)-3-(7-(8-ethylnaphthalen-1-yl)-2-(((2R,7aS)-2-fluorotetrahydro-1H-pyrrolizin-7a(5H)-yl)methoxy)-5,6,7,8-tetrahydropyrido[3,4-d]pyrimidin-4-yl)-8-azabicyclo[3.2.1]octan-2-ol] | 508
CCc1c(F)ccc2cc(O)cc(N3CCc4c(nc(OC[C@@]56CCCN5C[C@H](F)C6)nc4N4C[C@H]5CC[C@@H](C4)N5)C3)c12 [Example 118, 4-(4-((1R,5S)-3,8-diazabicyclo[3.2.1]octan-3-yl)-2-(((2R,7aS)-2-fluorohexahydro-1H-pyrrolizin-7a-yl)methoxy)-5,6-dihydropyrido[3,4-d]pyrimidin-7(8H)-yl)-5-ethyl-6-fluoronaphthalen-2-ol] | 2.1
Clc1ccc2cccc(N3CCc4c(nc(OCC56CCCN5CCC6)nc4N4C[C@H]5CC[C@@H](C4)N5)C3)c2c1Cl [Example 12, 4-((1R,5S)-3,8-diazabicyclo[3.2.1]octan-3-yl)-7-(7,8-dichloronaphthalen-1-yl)-2-((tetrahydro-1H-pyrrolizin-7a(5H)-yl)methoxy)-5,6,7,8-tetrahydropyrido[3,4-d]pyrimidine] | 345
CCCCc1cccc2cccc(N3CCc4c(nc(OC[C@@H]5CCCN5C)nc4N4C[C@H]5CC[C@@H](C4)N5)C3)c12 [Example 81, 4-((1R,5S)-3,8-diazabicyclo[3.2.1]octan-3-yl)-7-(8-butylnaphthalen-1-yl)-2-(((S)-1-methylpyrrolidin-2-yl)methoxy)-5,6,7,8-tetrahydropyrido[3,4-d]pyrimidine] | 710
Brc1cc(N2CCc3c(nc(OCC45CCCN4CCC5)nc3N3C[C@H]4CC[C@@H](C3)N4)C2)c2ccccc2c1 [Example 111, 4-((1R,5S)-3,8-diazabicyclo[3.2.1]octan-3-yl)-7-(3-bromonaphthalen-1-yl)-2-((tetrahydro-1H-pyrrolizin-7a(5H)-yl)methoxy)-5,6,7,8-tetrahydropyrido[3,4-d]pyrimidine] | 1050
CCc1cccc2cccc(N3CCc4c(nc(OC[C@@]56CCCN5C[C@H](F)C6)nc4[C@@H]4C[C@H]5CC[C@@H](C4)N5)C3)c12 [Example 122, 4-((1R,3s,5S)-8-azabicyclo[3.2.1]octan-3-yl)-7-(8-ethylnaphthalen-1-yl)-2-(((2R,7aS)-2-fluorotetrahydro-1H-pyrrolizin-7a(5H)-yl)methoxy)-5,6,7,8-tetrahydropyrido[3,4-d]pyrimidine] | 234
